Nine compounds from patent EP0886648B1 (ORTHO PHARMACEUTICAL CORPORATION, priority 1995, dated 1996) can be followed below.

Like-named read-outs stand apart in the source and are kept apart here. Positions of bridges follow the written chain, without caps; N, C: chain ends. Residues, ends and D or L forms follow the SMILES beside them. Chains are numbered I, II in the order given. No end group written: not given here.

For assay [1], the system named is Female BDF1 mice. Description: polycythemic exhypoxic mouse bioassay. The assay is classed as in vivo. The conditions noted are these: approximate equivalency. As to the method: Female BDF1 mice (18-20 gms) are subjected to a conditioning cycle (in hypobaric chambers) of 18 hrs. at 0.40 ± 0.02 atm. and 6 hrs. at ambien pressure for a period of 14 days.
Mice are maintained at ambient pressure for 72 hrs prior to administration of r-HuEPO or test samples. Test samples or r-HuEPO standard are diluted for injection into conditioned mice. The vehicle consists of: PBS containing 0.1 % BSA (w/v). For each dilution, 0.5 ml is administered subcutaneously into each of 10 mice. ^59Fe is administered 48 hrs. later. Blood samples are taken 48 hrs. following administration of ^59Fe. Hematocrits and radioactivity measurements are determined for each sample. Dose range and results (two different assays) are set forth in Table 23 and Figures 17A-17C, infra.

Assay [2] addresses T1, PIG-tailed EPO-R (Homo sapiens, UniProt P19235).
T1 construct: comprised the extracellular domain of the EPO-receptor and was produced in recombinant host cells; thrombin cleavage site (internal); made in house
T1 sequence (P19235 25-250 limits assumed): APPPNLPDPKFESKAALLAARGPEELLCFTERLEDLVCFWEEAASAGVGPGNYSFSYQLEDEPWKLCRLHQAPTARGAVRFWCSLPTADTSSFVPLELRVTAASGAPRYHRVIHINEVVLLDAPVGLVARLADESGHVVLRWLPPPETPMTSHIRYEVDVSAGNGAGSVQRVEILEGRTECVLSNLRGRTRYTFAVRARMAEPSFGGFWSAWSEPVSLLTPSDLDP
Description: radioligand competition binding assay against PIG-tailed EPO-R immobilized on mAb179. The text has this: The immobilized receptor used in the panning and ELISA procedures comprised the extracellular domain of the EPO-receptor and was produced in recombinant host cells. This receptor molecule can be produced in a variety of different forms and host cells. One useful form is constructed with a signal peptide for protein secretion and for glycophospholipid membrane anchor attachment (this form of anchor attachment is called "PIG-tailing;" see, Caras and Weddell, 3 March. 1989, Science 243:1196-1198; and Lin et al., 10 Aug. 1990, Science 249:677-679, each of which is incorporated herein by reference). This system allows for cleavage of the receptor from the surface of the cells expressing the receptor and collection of the cleaved receptor quite easily. Preferably, a protease cleavage site, such as a thrombin cleavage site, is inserted between the HPAP epitope of the PIG-tailed receptor and the receptor itself.
The recombinant receptor protein was immobilized using the following methodology. Microtiter plates were coated within an and-receptor antibody and the wells which were to contain the immobilized receptor were treated with bovine serum albumin (BSA) to block non-specific binding. The PIG-tailed receptor having a thrombin cleavage site was added to the coated wells of the microtiter plate, which were then washed to remove unbound receptor.
IC50s were calculated for several of the peptides falling within the general motifs described above. (Each of these peptides were independently synthesized and are C-terminally amidated, but could be easily prepared as the free carboxy acid or as an ester or other carboxy amide.)
This peptide was incubated with streptavidin in PBS at a 4:1 molar ratio at room temperature for one hour. Following this, the complex was introduced into the PIG-tailed EPO-R binding assay for IC50 determination. Peptide that had not been complexed to streptavidin was also run in the same experiment. […] Since this comparison was made using the free peptide concentrations and not the effective complex concentration (theoretically 4-fold lower), the effect will be even greater.
Figures 13 and 14 show the in vitro EPOR binding and biological activities of the dimer. The affinity of the dimer was tested against the PIG-tailed EPOR immobilized on mAb179 in strip wells.
(In a radioligand displacement assay an active substance lowers the binding of a labelled ligand.)

Assay [3] relates to FDCP-1/hEPO-R. As to conditions: for increase in potency over the parental peptide: EC50 of dimer vs GGTYSCHFGPLTWVCKPQGG
As to the method:
One assay utilized FDCP-1, a growth factor dependent murine multi-potential primitive hematopoietic progenitor cell line (see, e.g.. Dexter et al. (1980) J. Exp. Med. 152:1036-1047), as the parental cell line. This cell line can proliferate, but not differentiate, when supplemented with WEHI3-conditioned media (a medium that contains IL-3, ATCC number T1B68).
In brief, the cells are grown to half stationary density in the presence of the necessary growth factors. The cells are then washed in PBS and starved for 16-24 hours in whole media without the growth factors. After determining the viability of the cells, stock solutions (in whole media without the growth factors) are made to give about 10^5 cells per 50 microliters. […] Cells (50 microliters) are added to each well and the cells are incubated 24-48 hours, at which point the negative controls should die or be quiescent. Cell proliferation is then measured by techniques known in the art, such as an MTT assay which correlates with ^3H-thymidine incorporation as an indication of cell proliferation (see, Mosmann (1983) J. Immunol. Methods 65:55).
In addition, this peptide was preincubated with streptavidin in serum-free HEPES-buffered RPMI at a 4:1 molar ratio, as above. The complex was tested for stimulation of cell proliferation in an FDCP-1/hEPO-R bioassay alongside free […] (Ahx-biotin)) and the unbiotinylated parental peptide, i.e., […].

The target of assay [4] is T2, extracellular domain of the human erythropoietin receptor (EPO binding protein, EBP) (Homo sapiens, UniProt P19235).
T2 construct: made in house
T2 sequence (P19235 25-250 limits assumed): T1 sequence (P19235 25-250 limits assumed)
Description: immobilized EBP based [125I]EPO competition binding assay. As to the method:
The mixture was rocked gently for 30 minutes at room temperature, and the beads were allowed to settle for 1 hour at room temperature. The supernatant was removed and retained, and the beads were washed twice with 20 ml of coupling buffer.
Competitive binding analysis assays of candidate peptides were performed as outlined below. Individual peptides were dissolved in DMSO to prepare a stock solution of 1 mM. […] Initial assay points with no added peptide were included in each assay to determine total binding. Binding mixtures were incubated overnight at room temperature with gentle rocking. The beads were then collected using Micro-columns (Isolab, Inc., Akron, Ohio) and washed with 3 mL of wash buffer.

Assay [5] concerns FDC-P1/ER (murine receptor). Description: peptide dependent growth of EPO-responsive cell line FDC-P1/ER (thymidine incorporation). It is filed as cell-based. As to the method:
• a. […] Cell Proliferation Assay: • i. […] Peptide is added to each well in triplicate.
A general note: Uptake of a labelled nucleoside into DNA is a usual measure of proliferation.

Setting [6] is: free peptide, C-terminally amidated, read-out: IC50.

Take TIAQYICYMGPETWECRPSPKA [AF11654]: the “Amount of Peptide Equivalent to 0.025 units of EPO” value in assay [1] lay in the range of 11 to 21 nmol.

As to “I: GGTYSCHFGPLTWVCKPQGGK-NH2 / II: GGTYSCHFGPLTWVCKPQGG (disulfide I:6-I:15, II:6-II:15 (inferred); amide I:21-II:C (inferred); C-terminus assumed) [AF12080]”, in assay [1], the “Amount of Peptide Equivalent to 0.025 units of EPO” value was 0.035 nmol. Besides, the “increase over the value for the parental peptide” value in assay [2] (affinity vs GGTYSCHFGPLTWVCKPQGG) came out at 200 fold. Besides, in assay [2] (affinity vs GGTYSCHFGPLTWVCKPQGGSSK (Ahx-biotin)-streptavidin complex), the “increase over the streptavidin complex” value amounted to 5 fold. Besides, the figures for the “increase in potency over the parental peptide” value in assay [3] and in assay [3] (listed as dimeric peptide analog of GGTYSCHFGPLTWVCKPQGG) were “approximately 20 fold” and 20 fold, respectively.

For `CC[C@H](C)[C@@H]1NC(=O)[C@@H]2CCCN2C(=O)CNC(=O)[C@H](CCSC)NC(=O)[C@H](CCCNC(=N)N)NC(=O)[C@@H](NC(=O)[C@H](C)NC(=O)[C@H](Cc2ccc(O)cc2)NC(=O)[C@@H](NC(=O)CNC(=O)CN)C(C)C)CSSC[C@@H](C(=O)N[C@@H](CO)C(=O)N2CCC[C@H]2C(=O)N[C@@H](CC(C)C)C(=O)NCC(=O)NCC(N)=O)NC(=O)[C@H](C(C)C)NC(=O)[C@H](Cc2c[nH]c3ccccc23)NC(=O)[C@H]([C@@H](C)O)NC1=O` (HELM PEPTIDE1{G.G.V.Y.A.C.R.M.G.P.I.T.W.V.C.S.P.L.G.G.[am]}$PEPTIDE1,PEPTIDE1,6:R3-15:R3$$$V2.0; N-terminus assumed), in assay [2] (setting [6]), the IC50 was 352 nM.

The EC50 is the concentration giving half of the maximal effect. The low end stands for a more potent agent, the high end for a less potent agent. Consider `CC(C)C[C@@H]1NC(=O)[C@@H]2CCCN2C(=O)CNC(=O)[C@H](Cc2ccccc2)NC(=O)[C@H](Cc2c[nH]cn2)NC(=O)[C@@H](NC(=O)[C@H](CO)NC(=O)[C@H](Cc2ccc(O)cc2)NC(=O)[C@@H](NC(=O)CNC(=O)CN)[C@@H](C)O)CSSC[C@@H](C(=O)N[C@@H](CCCCN)C(=O)N2CCC[C@H]2C(=O)N[C@@H](CCC(N)=O)C(=O)NCC(=O)NCC(N)=O)NC(=O)[C@H](C(C)C)NC(=O)[C@H](Cc2c[nH]c3ccccc23)NC(=O)[C@H]([C@@H](C)O)NC1=O` [RWJ 61233] (HELM PEPTIDE1{G.G.T.Y.S.C.H.F.G.P.L.T.W.V.C.K.P.Q.G.G.[am]}$PEPTIDE1,PEPTIDE1,6:R3-15:R3$$$V2.0), for which the IC50 in assay [4] was 5 µM; in assay [2] (equilibrium competition binding assay, strip wells, read-out: affinity), 200 nM; in assay [2] (setting [6]), 237 nM. Besides, the EPO-ED50 in assay [5] amounted to 0.1 µM. For the same compound, it took 400 nM to reach a half-maximal effect in assay [3] (EC50).

Regarding `CC(C)C[C@H](NC(=O)CNC(=O)CN)C(=O)N[C@@H](Cc1ccc(O)cc1)C(=O)N[C@@H](CC(C)C)C(=O)N[C@H]1CSSC[C@@H](C(=O)NCC(=O)N[C@@H](Cc2ccc(O)cc2)C(=O)N[C@@H](CCCCN)C(=O)NCC(=O)NCC(N)=O)NC(=O)[C@H](CC(=O)O)NC(=O)[C@H](Cc2c[nH]c3ccccc23)NC(=O)[C@H]([C@@H](C)O)NC(=O)[C@H](C(C)C)NC(=O)[C@@H]2CCCN2C(=O)CNC(=O)[C@H](Cc2ccccc2)NC(=O)[C@H](CCCNC(=N)N)NC1=O` (HELM PEPTIDE1{G.G.L.Y.L.C.R.F.G.P.V.T.W.D.C.G.Y.K.G.G.[am]}$PEPTIDE1,PEPTIDE1,6:R3-15:R3$$$V2.0; N-terminus assumed), the IC50 in assay [2] (setting [6]) stood at 1670 nM.

Turning to `CSCC[C@@H]1NC(=O)[C@H](CCCNC(=N)N)NC(=O)[C@@H](NC(=O)[C@H](Cc2c[nH]cn2)NC(=O)[C@H](Cc2ccc(O)cc2)NC(=O)[C@H](CC(=O)O)NC(=O)CNC(=O)CN)CSSC[C@@H](C(=O)N[C@@H](CCCCN)C(=O)N2CCC[C@H]2C(=O)N[C@@H](CC(C)C)C(=O)NCC(=O)NCC(N)=O)NC(=O)[C@H](C(C)C)NC(=O)[C@H](Cc2c[nH]c3ccccc23)NC(=O)[C@H]([C@@H](C)O)NC(=O)[C@H](CC(C)C)NC(=O)[C@@H]2CCCN2C(=O)CNC1=O` (HELM PEPTIDE1{G.G.D.Y.H.C.R.M.G.P.L.T.W.V.C.K.P.L.G.G.[am]}$PEPTIDE1,PEPTIDE1,6:R3-15:R3$$$V2.0; N-terminus assumed), the IC50 in assay [2] (setting [6]) came to 179 nM.

In the case of `CC[C@H](C)[C@@H]1NC(=O)[C@@H]2CCCN2C(=O)CNC(=O)[C@H](Cc2ccccc2)NC(=O)[C@H](Cc2c[nH]cn2)NC(=O)[C@@H](NC(=O)[C@H](CCSC)NC(=O)[C@H](Cc2ccc(O)cc2)NC(=O)[C@H](CC(N)=O)NC(=O)CNC(=O)[C@@H](N)C(C)C)CSSC[C@@H](C(=O)N[C@@H](CCCNC(=N)N)C(=O)N2CCC[C@H]2C(=O)NCC(=O)NCC(=O)NCC(N)=O)NC(=O)[C@H](C(C)C)NC(=O)[C@H](Cc2c[nH]c3ccccc23)NC(=O)[C@H]([C@@H](C)O)NC1=O` (HELM PEPTIDE1{V.G.N.Y.M.C.H.F.G.P.I.T.W.V.C.R.P.G.G.G.[am]}$PEPTIDE1,PEPTIDE1,6:R3-15:R3$$$V2.0; N-terminus assumed), the IC50 in assay [2] (setting [6]) was found to be 420 nM.

Turning to `CC(C)C[C@@H]1NC(=O)[C@@H]2CCCN2C(=O)CNC(=O)[C@H](Cc2ccccc2)NC(=O)[C@H](Cc2c[nH]cn2)NC(=O)[C@@H](NC(=O)[C@H](CO)NC(=O)[C@H](Cc2ccc(O)cc2)NC(=O)[C@@H](NC(=O)CNC(=O)CN)[C@@H](C)O)CSSC[C@@H](C(=O)N[C@@H](CCCCN)C(=O)N2CCC[C@H]2C(=O)N[C@@H](CCC(N)=O)C(=O)NCC(=O)NCC(=O)N[C@@H](CO)C(=O)N[C@@H](CO)C(=O)N[C@@H](CCCCNC(=O)CCCCCNC(=O)CCCC[C@@H]2SC[C@@H]3NC(=O)N[C@@H]32)C(N)=O)NC(=O)[C@H](C(C)C)NC(=O)[C@H](Cc2c[nH]c3ccccc23)NC(=O)[C@H]([C@@H](C)O)NC1=O` [AF11505] (HELM PEPTIDE1{G.G.T.Y.S.C.H.F.G.P.L.T.W.V.C.K.P.Q.G.G.S.S.K.[am]}|PEPTIDE2{[O=C1N[C@H]2[C@H](CS[C@H]2CCCCC(=O)[*:2])N1].[O=C(CCCCCN[*:1])[*:2]]}$PEPTIDE1,PEPTIDE2,23:R3-2:R2|PEPTIDE1,PEPTIDE1,6:R3-15:R3$$$V2.0; N-terminus and C-terminus assumed; bridges inferred), in assay [3] (free peptides), the EPO-ED50 entry is “approximately 1 µM”.

As to VGNYMAHMGPITWVCRPGG-NH2, the IC50 in assay [2] (setting [6]) came out at 67000 nM.
